Consider three compounds from ChEMBL document CHEMBL6120974, “Hydrazide-Based Class I Selective HDAC Inhibitors Completely Reverse Chemoresistance Synergistically in Platinum-Resistant Solid Cancer Cells” (J Med Chem, 2024).

Active and inactive are the calls of the source. No cut-off for these calls is given here.

By IC50 is commonly meant the concentration needed to halve the response being measured. Broadly, the inhibition is the change of the read-out against control, counted positive when it falls.

In experiment [1] the target is T1, Protein deacetylase HDAC6 (Homo sapiens, UniProt Q9UBN7).
T1 sequence (Q9UBN7 whole entry): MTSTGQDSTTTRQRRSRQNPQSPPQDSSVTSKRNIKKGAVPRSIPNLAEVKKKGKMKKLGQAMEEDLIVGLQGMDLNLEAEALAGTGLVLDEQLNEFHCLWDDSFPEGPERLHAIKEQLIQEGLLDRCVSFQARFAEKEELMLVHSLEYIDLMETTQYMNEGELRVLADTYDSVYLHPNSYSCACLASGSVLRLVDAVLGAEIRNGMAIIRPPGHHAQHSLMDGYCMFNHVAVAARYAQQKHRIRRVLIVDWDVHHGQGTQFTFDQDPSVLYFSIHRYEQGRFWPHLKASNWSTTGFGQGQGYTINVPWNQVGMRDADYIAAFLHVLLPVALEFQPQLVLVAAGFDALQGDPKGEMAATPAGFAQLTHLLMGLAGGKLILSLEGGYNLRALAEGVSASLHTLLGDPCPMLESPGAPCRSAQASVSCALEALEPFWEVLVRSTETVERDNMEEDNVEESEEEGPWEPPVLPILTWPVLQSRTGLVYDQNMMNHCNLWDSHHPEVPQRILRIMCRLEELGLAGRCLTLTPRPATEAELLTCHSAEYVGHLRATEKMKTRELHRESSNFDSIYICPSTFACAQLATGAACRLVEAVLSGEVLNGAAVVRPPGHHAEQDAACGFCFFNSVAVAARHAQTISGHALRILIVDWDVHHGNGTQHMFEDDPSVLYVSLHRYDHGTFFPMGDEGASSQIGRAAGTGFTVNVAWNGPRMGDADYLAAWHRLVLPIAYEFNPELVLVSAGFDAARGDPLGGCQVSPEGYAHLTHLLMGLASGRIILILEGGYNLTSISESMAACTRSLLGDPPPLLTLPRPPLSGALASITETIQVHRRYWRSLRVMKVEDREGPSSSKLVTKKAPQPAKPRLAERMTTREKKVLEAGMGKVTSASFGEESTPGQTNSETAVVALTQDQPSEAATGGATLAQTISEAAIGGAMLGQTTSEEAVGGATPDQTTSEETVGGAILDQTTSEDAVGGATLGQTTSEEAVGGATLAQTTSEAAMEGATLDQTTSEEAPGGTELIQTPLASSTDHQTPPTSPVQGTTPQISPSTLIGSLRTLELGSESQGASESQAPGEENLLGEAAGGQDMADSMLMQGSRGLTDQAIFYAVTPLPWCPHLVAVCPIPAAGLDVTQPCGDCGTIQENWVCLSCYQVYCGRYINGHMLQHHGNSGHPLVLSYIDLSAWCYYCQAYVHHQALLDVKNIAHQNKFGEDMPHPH
The experiment in a line: Inhibition of N-terminal GST-tagged full length recombinant human HDAC6 (1 to 1215 end residues) expressed in sf9 cells using ZMAL (Z-Lys(Ac)-AMC as fluorogenic substrate preincubated with compound for 60 mins followed by substrate addition and measured after 90 mins by fluorescence based microplate reader analysis.

Experiment [2] addresses T2, Histone deacetylase 8 (Homo sapiens) (UniProt Q9BY41).
T2 sequence (whole entry): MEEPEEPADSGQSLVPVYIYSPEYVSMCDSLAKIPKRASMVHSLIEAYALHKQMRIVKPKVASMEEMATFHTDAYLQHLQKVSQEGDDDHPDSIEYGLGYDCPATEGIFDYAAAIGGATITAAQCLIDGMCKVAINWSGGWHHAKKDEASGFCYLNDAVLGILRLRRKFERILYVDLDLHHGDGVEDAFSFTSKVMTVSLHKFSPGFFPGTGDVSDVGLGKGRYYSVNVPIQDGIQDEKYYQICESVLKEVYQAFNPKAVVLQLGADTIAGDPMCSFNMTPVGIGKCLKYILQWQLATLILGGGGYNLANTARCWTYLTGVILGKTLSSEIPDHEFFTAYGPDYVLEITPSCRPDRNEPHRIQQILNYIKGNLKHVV
The experiment in a line: Inhibition of recombinant HDAC8 (unknown origin) at > 10 uM using Bos-Lys(TFA)-AMC as substrate preincubated with compound for 5 mins and measured after 90 mins by NOVOstar microplate reader analysis relative to control. To be noted: time 95.0 min.

Experiment [3] deals with Histone deacetylase 3/Nuclear receptor corepressor 2 (HDAC3/NCoR2) (Homo sapiens, UniProt O15379). Format: cell-based, Sf9.
Sequence of Histone deacetylase 3/Nuclear receptor corepressor 2 (HDAC3/NCoR2) (O15379 whole entry): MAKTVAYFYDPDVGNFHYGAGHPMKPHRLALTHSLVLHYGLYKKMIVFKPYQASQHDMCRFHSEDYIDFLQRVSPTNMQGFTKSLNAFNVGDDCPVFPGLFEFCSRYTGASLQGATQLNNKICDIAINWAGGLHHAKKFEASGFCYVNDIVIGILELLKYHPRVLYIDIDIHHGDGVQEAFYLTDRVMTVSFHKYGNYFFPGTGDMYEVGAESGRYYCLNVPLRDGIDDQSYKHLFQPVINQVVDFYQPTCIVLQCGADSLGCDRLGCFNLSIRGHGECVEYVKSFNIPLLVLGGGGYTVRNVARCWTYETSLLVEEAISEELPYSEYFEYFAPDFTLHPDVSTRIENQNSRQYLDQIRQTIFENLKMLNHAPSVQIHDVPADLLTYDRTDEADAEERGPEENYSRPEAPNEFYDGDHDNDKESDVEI
Sequence of Histone deacetylase 3/Nuclear receptor corepressor 2 (HDAC3/NCoR2) (Q9Y618 whole entry, further chain): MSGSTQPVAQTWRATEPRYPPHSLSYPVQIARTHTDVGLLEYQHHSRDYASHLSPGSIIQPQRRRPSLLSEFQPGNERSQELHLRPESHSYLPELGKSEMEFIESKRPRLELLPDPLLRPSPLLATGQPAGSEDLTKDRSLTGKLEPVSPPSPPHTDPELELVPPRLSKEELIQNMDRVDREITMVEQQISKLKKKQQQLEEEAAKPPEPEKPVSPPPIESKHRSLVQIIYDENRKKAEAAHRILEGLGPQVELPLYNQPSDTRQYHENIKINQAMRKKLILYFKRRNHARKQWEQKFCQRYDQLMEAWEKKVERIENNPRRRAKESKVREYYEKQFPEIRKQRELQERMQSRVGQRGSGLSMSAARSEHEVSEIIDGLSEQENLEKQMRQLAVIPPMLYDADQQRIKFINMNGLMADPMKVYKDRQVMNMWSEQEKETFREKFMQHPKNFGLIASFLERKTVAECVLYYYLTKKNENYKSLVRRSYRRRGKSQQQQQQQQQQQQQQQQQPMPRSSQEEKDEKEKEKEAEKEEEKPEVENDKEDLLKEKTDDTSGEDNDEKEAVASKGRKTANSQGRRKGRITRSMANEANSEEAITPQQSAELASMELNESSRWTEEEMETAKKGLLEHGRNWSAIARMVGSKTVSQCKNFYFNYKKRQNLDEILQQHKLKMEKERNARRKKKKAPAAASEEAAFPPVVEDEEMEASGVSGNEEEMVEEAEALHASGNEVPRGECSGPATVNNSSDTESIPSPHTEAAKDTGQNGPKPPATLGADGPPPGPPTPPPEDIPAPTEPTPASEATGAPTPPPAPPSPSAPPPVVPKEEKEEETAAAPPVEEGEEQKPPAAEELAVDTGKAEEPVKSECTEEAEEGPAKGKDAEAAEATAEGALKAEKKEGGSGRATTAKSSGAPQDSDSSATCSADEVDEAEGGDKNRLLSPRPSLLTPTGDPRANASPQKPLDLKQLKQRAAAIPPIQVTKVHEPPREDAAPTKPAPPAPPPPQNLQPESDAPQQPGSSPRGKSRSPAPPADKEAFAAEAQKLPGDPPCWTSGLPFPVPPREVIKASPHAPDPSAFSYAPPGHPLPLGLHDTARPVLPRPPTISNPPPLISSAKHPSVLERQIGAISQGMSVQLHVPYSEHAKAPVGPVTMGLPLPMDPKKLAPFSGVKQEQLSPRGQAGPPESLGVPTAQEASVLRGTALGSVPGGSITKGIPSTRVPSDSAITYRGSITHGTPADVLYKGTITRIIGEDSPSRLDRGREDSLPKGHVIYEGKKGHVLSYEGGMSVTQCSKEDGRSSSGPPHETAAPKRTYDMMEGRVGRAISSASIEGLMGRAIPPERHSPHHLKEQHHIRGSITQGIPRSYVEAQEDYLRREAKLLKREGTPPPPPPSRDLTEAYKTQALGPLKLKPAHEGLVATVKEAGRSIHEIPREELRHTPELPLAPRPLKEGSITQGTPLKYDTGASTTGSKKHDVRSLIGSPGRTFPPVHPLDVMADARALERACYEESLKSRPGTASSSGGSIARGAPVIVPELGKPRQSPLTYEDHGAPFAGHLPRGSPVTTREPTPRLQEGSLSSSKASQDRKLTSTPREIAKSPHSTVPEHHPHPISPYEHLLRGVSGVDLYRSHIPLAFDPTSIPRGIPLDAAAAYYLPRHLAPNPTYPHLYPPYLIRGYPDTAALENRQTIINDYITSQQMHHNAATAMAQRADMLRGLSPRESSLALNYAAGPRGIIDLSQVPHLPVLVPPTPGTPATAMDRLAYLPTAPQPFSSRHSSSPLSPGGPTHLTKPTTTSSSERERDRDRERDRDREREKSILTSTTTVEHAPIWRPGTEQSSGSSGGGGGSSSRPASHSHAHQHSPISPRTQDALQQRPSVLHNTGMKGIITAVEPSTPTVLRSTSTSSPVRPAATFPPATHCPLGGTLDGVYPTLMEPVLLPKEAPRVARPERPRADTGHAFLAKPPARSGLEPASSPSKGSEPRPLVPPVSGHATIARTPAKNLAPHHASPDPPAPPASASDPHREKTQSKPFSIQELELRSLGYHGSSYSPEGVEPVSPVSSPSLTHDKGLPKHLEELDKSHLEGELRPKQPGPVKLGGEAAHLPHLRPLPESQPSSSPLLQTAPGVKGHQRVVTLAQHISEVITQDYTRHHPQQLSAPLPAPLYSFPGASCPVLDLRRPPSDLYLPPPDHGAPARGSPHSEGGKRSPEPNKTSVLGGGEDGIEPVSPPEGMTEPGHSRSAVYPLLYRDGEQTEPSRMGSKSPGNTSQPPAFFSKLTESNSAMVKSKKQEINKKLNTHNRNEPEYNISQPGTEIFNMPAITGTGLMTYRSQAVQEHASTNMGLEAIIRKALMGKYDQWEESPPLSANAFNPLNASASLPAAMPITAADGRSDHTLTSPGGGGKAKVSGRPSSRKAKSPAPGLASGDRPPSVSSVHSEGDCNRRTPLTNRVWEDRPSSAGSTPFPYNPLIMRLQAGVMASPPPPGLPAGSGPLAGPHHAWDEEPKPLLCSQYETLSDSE
In another experiment the target is T3, Histone deacetylase 8 (Homo sapiens, UniProt Q9BY41).
T3 sequence (Q9BY41 whole entry): T2 sequence (whole entry)
Nature of the experiment: Inhibition of recombinant HDAC8 (unknown origin) using Bos-Lys(TFA)-AMC as substrate preincubated with compound for 5 mins and measured after 90 mins by NOVOstar microplate reader analysis.

The target in another experiment is Histone deacetylase 1 (Homo sapiens, UniProt Q13547). Nature of the experiment: Inhibition of C-terminal 6-his/FLAG tagged full length human recombinant HDAC1 (1 to 482 end residues) expressed in sf9 cells at 10 uM using ZMAL (Z-Lys(Ac)-AMC as fluorogenic substrate preincubated with compound for 60 mins followed by substrate addition and measured after 90 mins by fluorescence based microplate reader analysis relative to control. To be noted: time 150.0 min.
Sequence of Histone deacetylase 1 (Q13547 whole entry): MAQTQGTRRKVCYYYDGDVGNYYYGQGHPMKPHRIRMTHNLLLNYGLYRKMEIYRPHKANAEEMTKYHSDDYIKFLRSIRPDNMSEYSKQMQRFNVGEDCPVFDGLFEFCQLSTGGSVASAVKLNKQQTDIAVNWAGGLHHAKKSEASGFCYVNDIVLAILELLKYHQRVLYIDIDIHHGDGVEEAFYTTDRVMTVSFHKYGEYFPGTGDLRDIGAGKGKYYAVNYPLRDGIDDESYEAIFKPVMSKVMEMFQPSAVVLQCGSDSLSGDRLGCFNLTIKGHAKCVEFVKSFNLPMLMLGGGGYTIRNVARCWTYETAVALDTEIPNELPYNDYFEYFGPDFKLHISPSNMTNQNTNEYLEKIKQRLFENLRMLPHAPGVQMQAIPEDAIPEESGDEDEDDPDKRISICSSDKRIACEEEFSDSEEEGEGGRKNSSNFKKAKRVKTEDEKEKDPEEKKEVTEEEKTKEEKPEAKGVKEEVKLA

Experiment [4] addresses Histone deacetylase 2 (Homo sapiens) (UniProt Q92769). Nature of the experiment: Inhibition of C-terminal FLAG tagged full length human recombinant HDAC2 (1 to 488 end residues) expressed in sf9 cells at 10 uM using ZMAL (Z-Lys(Ac)-AMC as fluorogenic substrate preincubated with compound for 60 mins followed by substrate addition and measured after 90 mins by fluorescence based microplate reader analysis relative to control. To be noted: time 150.0 min.

The target in experiment [5] is T4, Histone deacetylase 3/Nuclear receptor corepressor 2 (HDAC3/NCoR2) (Homo sapiens) (UniProt O15379+Q9Y618). The experiment in a line: Inhibition of C-terminal His tagged human recombinant HDAC3 (1 to 428 end residues)/N-terminal GST-tagged human NcoR2 expressed in sf9 cells at > 10 uM using ZMAL (Z-Lys(Ac)-AMC as fluorogenic substrate preincubated with compound for 60 mins followed by substrate addition and measured after 90 mins by fluorescence based microplate reader analysis relative to control. To be noted: time 150.0 min.

For experiment [6], the target named is T5, Protein deacetylase HDAC6 (Homo sapiens) (UniProt Q9UBN7).
T5 sequence (whole entry): T1 sequence (Q9UBN7 whole entry)
Nature of the experiment: Inhibition of N-terminal GST-tagged full length recombinant human HDAC6 (1 to 1215 end residues) expressed in sf9 cells at > 10 uM using ZMAL (Z-Lys(Ac)-AMC as fluorogenic substrate preincubated with compound for 60 mins followed by substrate addition and measured after 90 mins by fluorescence based microplate reader analysis relative to control. To be noted: time 150.0 min.

The target in the next experiment is Histone deacetylase 4 (Homo sapiens, UniProt P56524). Nature of the experiment: Inhibition of recombinant HDAC4 (unknown origin) using Bos-Lys(TFA)-AMC as substrate preincubated with compound for 5 mins and measured after 90 mins by NOVOstar microplate reader analysis.
Sequence of Histone deacetylase 4 (P56524 whole entry): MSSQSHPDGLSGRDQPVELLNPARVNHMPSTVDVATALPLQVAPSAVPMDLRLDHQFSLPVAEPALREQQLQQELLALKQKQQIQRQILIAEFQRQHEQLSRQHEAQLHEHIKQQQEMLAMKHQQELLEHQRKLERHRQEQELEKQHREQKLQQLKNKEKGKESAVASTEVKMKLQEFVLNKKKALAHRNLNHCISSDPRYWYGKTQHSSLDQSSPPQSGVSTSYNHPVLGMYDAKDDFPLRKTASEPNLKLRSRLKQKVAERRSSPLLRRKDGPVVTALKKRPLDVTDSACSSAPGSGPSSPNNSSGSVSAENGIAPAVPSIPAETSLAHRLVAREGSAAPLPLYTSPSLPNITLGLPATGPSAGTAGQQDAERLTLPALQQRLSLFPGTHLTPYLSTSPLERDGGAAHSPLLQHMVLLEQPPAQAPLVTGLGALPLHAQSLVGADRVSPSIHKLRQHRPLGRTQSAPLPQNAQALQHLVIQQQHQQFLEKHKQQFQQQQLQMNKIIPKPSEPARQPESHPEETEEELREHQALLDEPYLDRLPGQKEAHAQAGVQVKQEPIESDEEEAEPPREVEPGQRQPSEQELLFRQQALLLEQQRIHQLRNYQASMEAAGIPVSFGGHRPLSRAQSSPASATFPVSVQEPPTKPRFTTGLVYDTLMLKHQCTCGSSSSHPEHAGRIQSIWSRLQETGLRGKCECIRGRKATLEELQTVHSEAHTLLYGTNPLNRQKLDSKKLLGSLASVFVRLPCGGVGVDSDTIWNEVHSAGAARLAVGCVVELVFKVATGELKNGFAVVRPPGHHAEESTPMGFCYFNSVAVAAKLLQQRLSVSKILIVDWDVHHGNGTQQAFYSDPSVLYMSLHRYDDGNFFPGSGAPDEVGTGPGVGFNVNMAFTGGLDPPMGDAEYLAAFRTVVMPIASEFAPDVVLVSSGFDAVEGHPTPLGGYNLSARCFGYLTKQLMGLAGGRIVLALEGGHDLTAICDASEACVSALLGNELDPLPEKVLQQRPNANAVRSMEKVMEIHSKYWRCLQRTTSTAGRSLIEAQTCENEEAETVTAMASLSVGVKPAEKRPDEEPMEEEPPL
In experiment [7] the test system is A2780. The experiment in a line: Inhibition of class I/6 HDAC (unknown origin) in human A2780 cells at < 100 uM using Boc-Lys(epsilon-Ac)-AMC as substrate preincubated with compound for 18 hrs followed by substrate addition and measured after 3 hrs by NOVOstar microplate reader analysis. The format is cell-based.
The subject of experiment [8] is A2780 cisR. The experiment in a line: Inhibition of class I/6 HDAC (unknown origin) in cisplatin resistant human A2780 cisR cells at < 100 uM using Boc-Lys(epsilon-Ac)-AMC as substrate preincubated with compound for 18 hrs followed by substrate addition and measured after 3 hrs by NOVOstar microplate reader analysis. The format is cell-based.
The subject of another experiment is A2780cisR. The experiment in a line: Cytotoxicity against cisplatin resistant human A2780 cisR cells at < 100 uM assessed as reduction in cell viability incubated for 72 hrs by MTT assay. The format is functional, cell-based. In general terms: Formazan colour is commonly taken as a measure of viable cells.
Experiment [9] relates to CAL-27. The experiment in a line: Cytotoxicity against human CAL-27 cells at < 100 uM assessed as reduction in cell viability incubated for 72 hrs by MTT assay. Format: functional, cell-based.
Experiment [10] relates to Cal27CisR. Nature of the experiment: Cytotoxicity against cisplatin resistant human Cal27CisR cells at < 10 uM assessed as reduction in cell viability incubated for 72 hrs by MTT assay. The format is functional, cell-based.
A short description of experiment [11]: cells. To be noted: Homo sapiens, CAL-27.
Description: Inhibition of class I/6 HDAC (unknown origin) in human CAL-27 cells using Boc-Lys(epsilon-Ac)-AMC as substrate preincubated with compound for 18 hrs followed by substrate addition and measured after 3 hrs by NOVOstar microplate reader analysis
A short description of experiment [12]: cells. To be noted: Homo sapiens, Cal27CisR.
Description: Inhibition of class I/6 HDAC (unknown origin) in cisplatin resistant human Cal27CisR cells using Boc-Lys(epsilon-Ac)-AMC as substrate preincubated with compound for 18 hrs followed by substrate addition and measured after 3 hrs by NOVOstar microplate reader analysis
Experiment [13] relates to A2780. The experiment in a line: cells. To be noted: Homo sapiens, A2780, 72 h.
Description: Cytotoxicity against human A2780 cells assessed as reduction in cell viability incubated for 72 hrs by MTT assay
Experiment [14] addresses T5, Protein deacetylase HDAC6 (Homo sapiens). The experiment in a line: Inhibition of N-terminal GST-tagged full length recombinant human HDAC6 (1 to 1215 end residues) expressed in sf9 cells at 10 uM using ZMAL (Z-Lys(Ac)-AMC as fluorogenic substrate preincubated with compound for 60 mins followed by substrate addition and measured after 90 mins by fluorescence based microplate reader analysis relative to control. To be noted: time 150.0 min.

Experiment [15] addresses T4, Histone deacetylase 3/Nuclear receptor corepressor 2 (HDAC3/NCoR2) (Homo sapiens). The experiment in a line: Inhibition of C-terminal His tagged human recombinant HDAC3 (1 to 428 end residues)/N-terminal GST-tagged human NcoR2 expressed in sf9 cells at 10 uM using ZMAL (Z-Lys(Ac)-AMC as fluorogenic substrate preincubated with compound for 60 mins followed by substrate addition and measured after 90 mins by fluorescence based microplate reader analysis relative to control. To be noted: time 150.0 min.

Experiment [16] has as its system A2780. The experiment in a line: Cytotoxicity against human A2780 cells at < 100 uM assessed as reduction in cell viability incubated for 72 hrs by MTT assay. Format: functional, cell-based.
Experiment [17] in a line: cells. To be noted: Homo sapiens, A2780.
Description: Inhibition of class I/6 HDAC (unknown origin) in human A2780 cells using Boc-Lys(epsilon-Ac)-AMC as substrate preincubated with compound for 18 hrs followed by substrate addition and measured after 3 hrs by NOVOstar microplate reader analysis
Experiment [18] in a line: cells. To be noted: Homo sapiens, A2780cisR.
Description: Inhibition of class I/6 HDAC (unknown origin) in cisplatin resistant human A2780 cisR cells using Boc-Lys(epsilon-Ac)-AMC as substrate preincubated with compound for 18 hrs followed by substrate addition and measured after 3 hrs by NOVOstar microplate reader analysis
Experiment [19] concerns CAL-27. Nature of the experiment: cells. To be noted: Homo sapiens, CAL-27, 72 h.
Description: Cytotoxicity against human CAL-27 cells assessed as reduction in cell viability incubated for 72 hrs by MTT assay
The target of experiment [20] is Histone deacetylase 2 (Homo sapiens) (UniProt Q92769). Nature of the experiment: Inhibition of C-terminal FLAG tagged full length human recombinant HDAC2 (1 to 488 end residues) expressed in sf9 cells at > 10 uM using ZMAL (Z-Lys(Ac)-AMC as fluorogenic substrate preincubated with compound for 60 mins followed by substrate addition and measured after 90 mins by fluorescence based microplate reader analysis relative to control.
Sequence of Histone deacetylase 2 (Homo sapiens) (Q92769 whole entry): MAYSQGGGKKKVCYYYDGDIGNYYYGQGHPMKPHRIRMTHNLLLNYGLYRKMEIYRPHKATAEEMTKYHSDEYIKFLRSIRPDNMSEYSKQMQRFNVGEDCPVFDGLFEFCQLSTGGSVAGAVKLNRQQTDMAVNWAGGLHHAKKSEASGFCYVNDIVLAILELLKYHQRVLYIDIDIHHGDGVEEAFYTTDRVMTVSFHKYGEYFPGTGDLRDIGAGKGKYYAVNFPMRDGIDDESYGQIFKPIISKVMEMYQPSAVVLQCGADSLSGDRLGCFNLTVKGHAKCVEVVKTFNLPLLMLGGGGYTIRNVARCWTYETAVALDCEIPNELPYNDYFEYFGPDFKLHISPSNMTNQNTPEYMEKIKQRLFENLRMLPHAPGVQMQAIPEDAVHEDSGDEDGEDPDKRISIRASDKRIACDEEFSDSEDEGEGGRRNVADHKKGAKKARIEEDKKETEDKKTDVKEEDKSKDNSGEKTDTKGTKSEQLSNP

In experiment [21] the test system is A2780. The experiment in a line: Inhibition of class I/6 HDAC (unknown origin) in human A2780 cells at < 10 uM using Boc-Lys(epsilon-Ac)-AMC as substrate preincubated with compound for 18 hrs followed by substrate addition and measured after 3 hrs by NOVOstar microplate reader analysis. The format is cell-based.
Experiment [22] relates to A2780 cisR. Nature of the experiment: Inhibition of class I/6 HDAC (unknown origin) in cisplatin resistant human A2780 cisR cells at < 10 uM using Boc-Lys(epsilon-Ac)-AMC as substrate preincubated with compound for 18 hrs followed by substrate addition and measured after 3 hrs by NOVOstar microplate reader analysis. Format: cell-based.
The test system of experiment [23] is CAL-27. Nature of the experiment: Inhibition of class I/6 HDAC (unknown origin) in human CAL-27 cells at < 10 uM using Boc-Lys(epsilon-Ac)-AMC as substrate preincubated with compound for 18 hrs followed by substrate addition and measured after 3 hrs by NOVOstar microplate reader analysis. The format is cell-based.
In experiment [24] the test system is Cal27CisR. Nature of the experiment: Inhibition of class I/6 HDAC (unknown origin) in cisplatin resistant human Cal27CisR cells at < 10 uM using Boc-Lys(epsilon-Ac)-AMC as substrate preincubated with compound for 18 hrs followed by substrate addition and measured after 3 hrs by NOVOstar microplate reader analysis. The format is cell-based.

Consider `CN(C)c1ccc(C(=O)N(CC(=O)NCc2ccccc2)Cc2ccc(C(=O)NNCCC(C)(C)C)cc2)cc1`, for which the IC50 was > 10 µM in experiment [1]; > 10 µM in [3]; > 10 µM on Histone deacetylase 8; > 10 µM at Histone deacetylase 4; 83.4 µM in the experiment “cells [11]”; 43.6 µM in the experiment “cells [12]”. Moreover, the IC50 in the experiment with A2780 [13] stood at 70.2 µM. The inhibition was < 25% in experiment [2]; 63% on Histone deacetylase 1; 46% in [4]; < 25% in [5]; < 25% in experiment [6]. For the same compound, the inhibition entry in the experiment on A2780 [7] and with A2780 cisR [8] was “inactive” in each case. Also, the outcome in the experiment with A2780cisR, with CAL-27 [9] and in the experiment with Cal27CisR [10] was inactive.

Regarding `CN(C)c1ccc(C(=O)N(CC(=O)NCc2ccccc2)Cc2ccc(C(=O)NN)cc2)cc1`, the inhibition in [2] was < 25%; in experiment [14], 55%; at Histone deacetylase 1 it was 62%; in experiment [4] it was 53%; in experiment [15] it was 57%. Also, the IC50 on Histone deacetylase 8 was > 10 µM; at Histone deacetylase 4 it was > 10 µM; in “cells [17]” it was 33.1 µM; in “cells [18]”, 37.7 µM; in the experiment “cells [11]”, 30.9 µM; in “cells [12]”, 35.9 µM. The midpoint of inhibition with CAL-27 [19], the IC50, lay at 63.5 µM. Further, the result with A2780 [16], in the experiment on A2780cisR and in the experiment on Cal27CisR [10] was inactive.

On to `CN(C)c1ccc(C(=O)N(CC(=O)NCc2ccccc2)Cc2ccc(C(=O)NNC/C=C/c3ccccc3)cc2)cc1`, for which the IC50 (in experiment [1]; on Histone deacetylase 8; on Histone deacetylase 4) was > 10 µM each time. The inhibition was < 25% in [2]; 37% at Histone deacetylase 1; < 25% in experiment [20]; 32% in experiment [15]; < 25% in experiment [6]. Besides, the inhibition entry in the experiment on A2780 [21], in the experiment on A2780 cisR [22], with CAL-27 [23] and with Cal27CisR [24] was “inactive” each time. In addition, the outcome in the experiment with A2780 [16], in the experiment with A2780cisR, with CAL-27 [9] and in the experiment on Cal27CisR [10] was inactive.
